Values of other authors in US10201577B2, “Compositions and methods for enhancing working and long-term memory support using new combination of ginkgo biloba and panax ginseng and associated components” (KEYVIEW LABS, INC., priority 2017, dated 2019).

How the values were obtained:
[1] = in vivo, po
[2] = molecular target: T1, choline acetyltransferase (Homo sapiens, UniProt P28329); settings: isolated Rb1
T1 sequence (P28329 1-748): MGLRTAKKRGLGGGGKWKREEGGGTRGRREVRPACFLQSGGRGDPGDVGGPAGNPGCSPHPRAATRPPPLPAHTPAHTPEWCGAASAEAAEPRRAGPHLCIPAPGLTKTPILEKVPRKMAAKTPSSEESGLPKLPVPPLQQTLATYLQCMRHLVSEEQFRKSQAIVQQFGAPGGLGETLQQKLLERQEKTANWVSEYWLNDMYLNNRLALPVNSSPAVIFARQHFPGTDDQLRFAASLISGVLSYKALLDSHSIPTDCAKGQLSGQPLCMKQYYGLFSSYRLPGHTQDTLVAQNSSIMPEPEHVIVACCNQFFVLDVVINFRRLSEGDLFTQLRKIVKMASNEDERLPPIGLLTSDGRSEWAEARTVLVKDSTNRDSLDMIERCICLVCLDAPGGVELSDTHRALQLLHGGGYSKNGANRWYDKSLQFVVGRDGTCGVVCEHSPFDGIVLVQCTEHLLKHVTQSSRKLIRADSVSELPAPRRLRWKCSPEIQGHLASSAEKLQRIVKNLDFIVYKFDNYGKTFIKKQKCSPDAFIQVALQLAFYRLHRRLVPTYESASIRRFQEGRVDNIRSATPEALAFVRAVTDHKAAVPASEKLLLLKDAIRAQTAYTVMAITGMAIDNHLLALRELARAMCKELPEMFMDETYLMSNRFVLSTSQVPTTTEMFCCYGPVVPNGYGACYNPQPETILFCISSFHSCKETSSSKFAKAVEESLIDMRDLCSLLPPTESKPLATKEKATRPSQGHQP

[3] = test system: acetylcholine release; settings: isolated Rb1
[4] = test system: long term potentiation (LTP); settings: in vivo

Row | SMILES | elimination half-life [1] | time of peak plasma level [1] | choline acetyltransferase activity [2] | acetylcholine release [3] | long term potentiation (LTP) [4]
1 | CC1C(=O)OC2C(O)C34C5CC(C(C)(C)C)C36C(OC(=O)C6O)OC4(C(=O)O5)C12O (centres unmarked) [Ginkgolide B] | 4.31 ± 0.49 h | around 2.25±0.45 hours | – | – | –
2 | CC(C)=CCC[C@](C)(O[C@@H]1O[C@H](CO[C@@H]2O[C@H](CO)[C@@H](O)[C@H](O)[C@H]2O)[C@@H](O)[C@H](O)[C@H]1O)[C@H]1CC[C@]2(C)[C@@H]1[C@H](O)C[C@@H]1[C@@]3(C)CC[C@H](O[C@@H]4O[C@H](CO)[C@@H](O)[C@H](O)[C@H]4O[C@@H]4O[C@H](CO)[C@@H](O)[C@H](O)[C@H]4O)C(C)(C)[C@@H]3CC[C@]12C [Rb1] | – | – | stimulates | stimulates | capable of in vivo modulation
